Each structure is given as a SMILES string. Numbers after ± are expanded uncertainties.

The conditions of data set [1]: Liquid; Calvet microcalorimetry.
Data set [2] in a line: molar enthalpy of vaporization or sublimation. The settings on record: 298.15 K; Liquid; Calvet microcalorimetry.

Turning to `O=C1C=CCS1` [2(5H)-thiophenone], the Normal boiling temperature in data set [1] turned out to be 103 ± 0.2 °C. In data set [2], the molar enthalpy was 13.4 ± 0.574 kcal/mol.
`O=C1C=CCO1` [(5H)-furan-2-one]: the molar enthalpy in data set [2] worked out at 13.3 ± 0.621 kcal/mol.

Values taken from the NIST ThermoML archive (doi:10.1016/j.jct.2009.11.013).
